Test results reported in patent publication EP4810052A2, “HCRHR2 SELECTIVE POLYPEPTIDES” (Gubra A/S, priority 2023, dated 2026).
Starred links: 1 amine or outer side, 2 acyl side, 3 side chain; linkers in the order of their positions; H or OH if unused. Non-standard residues stand in square brackets, D forms with d. Residues, ends and D or L forms follow the SMILES beside them. Groups on a side chain read outwards from the residue. *: point of attachment. C20 diacid = O=C(O)CCCCCCCCCCCCCCCCCCC(=O)*; γGlu = O=C(O)[C@H](CCC(=O)[*:2])N[*:1]; NMeI = CC[C@H](C)[C@H](NC)C(=O)O; Nle = CCCC[C@H](N)C(=O)O; AEEA = NCCOCCOCC(=O)O; Aib = CC(C)(N)C(=O)O

Columns and labels:
[1] = molecular target: T1, hCRHR2 (Homo sapiens, UniProt Q13324); test: HTRF cAMP assay, determination of hCRHR2 potency (peptide libraries 5 conc., purified peptides 11 conc.); assay type: cell-based; settings: Table 4, library peptides having X^38 = Nle; read-out: hCRHR2 pEC50 (converted)
T1 sequence (Q13324 1-411): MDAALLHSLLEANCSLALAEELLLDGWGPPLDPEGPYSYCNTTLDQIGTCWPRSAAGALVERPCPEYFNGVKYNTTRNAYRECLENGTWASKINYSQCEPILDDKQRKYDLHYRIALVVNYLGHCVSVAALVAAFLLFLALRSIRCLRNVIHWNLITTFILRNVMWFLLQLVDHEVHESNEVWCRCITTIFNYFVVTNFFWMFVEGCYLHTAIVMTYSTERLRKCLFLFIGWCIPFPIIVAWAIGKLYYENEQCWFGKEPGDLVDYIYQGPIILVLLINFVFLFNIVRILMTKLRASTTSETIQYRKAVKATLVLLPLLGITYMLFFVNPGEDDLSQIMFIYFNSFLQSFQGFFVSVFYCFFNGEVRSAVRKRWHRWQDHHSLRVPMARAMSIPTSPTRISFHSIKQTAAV
Method in brief: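 Potency was read as cAMP accumulation in a stable CHO-K1 line expressing human CRHR2, used in suspension right after thawing. Detection relied on energy transfer from antibody-bound cryptate to d2-cAMP.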

[2] = molecular target: T2, hCRHR1 (Homo sapiens, UniProt P34998); test: HTRF cAMP assay, determination of hCRHR1 potency (peptide libraries 5 conc., purified peptides 11 conc.); assay type: cell-based; settings: Table 4, library peptides having X^38 = Nle; read-out: hCRHR1 pEC50 (converted)
T2 sequence (P34998 24-415): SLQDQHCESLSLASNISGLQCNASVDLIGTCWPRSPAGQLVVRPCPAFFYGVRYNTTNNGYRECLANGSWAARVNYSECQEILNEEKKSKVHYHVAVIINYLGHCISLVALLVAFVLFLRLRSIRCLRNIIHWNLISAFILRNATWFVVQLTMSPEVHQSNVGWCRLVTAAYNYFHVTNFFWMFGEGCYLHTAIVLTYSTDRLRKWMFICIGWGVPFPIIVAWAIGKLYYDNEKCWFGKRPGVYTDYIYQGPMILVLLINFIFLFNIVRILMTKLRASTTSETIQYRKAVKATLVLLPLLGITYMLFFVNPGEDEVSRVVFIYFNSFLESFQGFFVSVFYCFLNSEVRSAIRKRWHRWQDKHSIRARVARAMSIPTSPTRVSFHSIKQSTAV
Method in brief: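 CHO-K1 cells stably expressing human CRHR1, thawed from frozen stocks just before use, were stimulated in suspension with agonist peptides. cAMP was measured by HTRF competitive immunoassay (cryptate anti-cAMP antibody vs d2-cAMP).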

Structure (SMILES) | EC50 [1] | EC50 [2]
CCCC[C@H](NC(=O)[C@@H](NC(=O)[C@H](CCC(=O)O)NC(=O)[C@H](C)NC(=O)[C@H](CC(N)=O)NC(=O)C(C)(C)NC(=O)[C@H](CCCCNC(=O)COCCOCCNC(=O)COCCOCCNC(=O)CC[C@H](NC(=O)CC[C@H](NC(=O)CCCCCCCCCCCCCCCCCCC(=O)O)C(=O)O)C(=O)O)NC(=O)[C@H](C)NC(=O)[C@H](CCC(N)=O)NC(=O)[C@H](CCC(=O)O)NC(=O)[C@H](CCCNC(=N)N)NC(=O)[C@H](C)NC(=O)[C@H](C)NC(=O)[C@H](CCCNC(=N)N)NC(=O)[C@H](C)NC(=O)[C@H](CCCNC(=N)N)NC(=O)[C@H](C)NC(=O)[C@H](CCC(N)=O)NC(=O)[C@H](Cc1ccccc1)NC(=O)[C@H](CC(C)C)NC(=O)[C@H](CC(C)C)NC(=O)[C@@H](NC(=O)[C@H](CCC(N)=O)NC(=O)[C@H](CC(C)C)NC(=O)[C@H](CC(C)C)NC(=O)CNC(=O)[C@@H](NC(=O)[C@@H]1CCCN1C(=O)[C@@H](NC(=O)[C@H](CC(=O)O)NC(=O)[C@H](CC(C)C)NC(=O)[C@H](CO)NC(=O)[C@H](CC(C)C)NC(=O)[C@@H](NC(=O)[C@@H](NC)[C@@H](C)CC)C(C)C)C(C)C)[C@@H](C)CC)[C@@H](C)CC)[C@@H](C)CC)C(=O)N[C@@H](C)C(=O)N[C@@H](CCC(=O)O)C(=O)N[C@H](C(N)=O)C(C)C [compound 128] (H-[NMeI]VLSLDVPIGLLQILLFQARARAAREQAK([AEEA-AEEA-γGlu-γGlu-C20 diacid])[Aib]NAEI[Nle]AEV-NH2) | 0.00501 nM | 100000 nM
CCCC[C@H](NC(=O)[C@@H](NC(=O)[C@H](CCC(=O)O)NC(=O)[C@H](C)NC(=O)[C@H](CC(N)=O)NC(=O)C(C)(C)NC(=O)[C@H](CCCCNC(=O)COCCOCCNC(=O)COCCOCCNC(=O)CC[C@H](NC(=O)CC[C@H](NC(=O)CCCCCCCCCCCCCCCCCCC(=O)O)C(=O)O)C(=O)O)NC(=O)[C@H](C)NC(=O)[C@H](CCC(N)=O)NC(=O)[C@H](CCC(=O)O)NC(=O)[C@H](CCCNC(=N)N)NC(=O)[C@H](C)NC(=O)[C@H](C)NC(=O)[C@H](CCCNC(=N)N)NC(=O)[C@H](C)NC(=O)[C@H](CCCNC(=N)N)NC(=O)[C@H](C)NC(=O)[C@H](CCC(N)=O)NC(=O)[C@@H](NC(=O)[C@H](CC(C)C)NC(=O)[C@H](CC(C)C)NC(=O)[C@@H](NC(=O)[C@H](CCC(N)=O)NC(=O)[C@H](CC(C)C)NC(=O)[C@H](CC(C)C)NC(=O)CNC(=O)[C@@H](NC(=O)[C@@H]1CCCN1C(=O)[C@@H](NC(=O)[C@H](CC(=O)O)NC(=O)[C@H](CC(C)C)NC(=O)[C@H](CO)NC(=O)[C@H](CC(C)C)NC(=O)[C@@H](NC(=O)[C@@H](NC)[C@@H](C)CC)C(C)C)C(C)C)[C@@H](C)CC)[C@@H](C)CC)[C@@H](C)O)[C@@H](C)CC)C(=O)N[C@@H](C)C(=O)N[C@@H](CCC(=O)O)C(=O)N[C@H](C(N)=O)C(C)C [compound 134] (H-[NMeI]VLSLDVPIGLLQILLTQARARAAREQAK([AEEA-AEEA-γGlu-γGlu-C20 diacid])[Aib]NAEI[Nle]AEV-NH2) | 0.00794 nM | 794 nM
CCCC[C@H](NC(=O)[C@@H](NC(=O)[C@H](CCC(=O)O)NC(=O)[C@H](C)NC(=O)[C@H](CC(N)=O)NC(=O)C(C)(C)NC(=O)[C@H](CCCCNC(=O)COCCOCCNC(=O)COCCOCCNC(=O)CC[C@H](NC(=O)CC[C@H](NC(=O)CCCCCCCCCCCCCCCCCCC(=O)O)C(=O)O)C(=O)O)NC(=O)[C@H](C)NC(=O)[C@H](CCC(N)=O)NC(=O)[C@H](CCC(=O)O)NC(=O)[C@H](CCCNC(=N)N)NC(=O)[C@H](C)NC(=O)[C@H](C)NC(=O)[C@H](CCCNC(=N)N)NC(=O)[C@H](C)NC(=O)[C@H](CCCNC(=N)N)NC(=O)[C@H](C)NC(=O)[C@H](CCC(N)=O)NC(=O)[C@@H](NC(=O)[C@H](CC(C)C)NC(=O)[C@H](CC(C)C)NC(=O)[C@@H](NC(=O)[C@H](CCC(N)=O)NC(=O)[C@H](CC(C)C)NC(=O)[C@H](CC(C)C)NC(=O)CNC(=O)[C@@H](NC(=O)[C@@H]1CCCN1C(=O)[C@@H](NC(=O)[C@H](CC(=O)O)NC(=O)[C@H](CC(C)C)NC(=O)[C@H](CO)NC(=O)[C@H](CC(C)C)NC(=O)[C@@H](NC(=O)[C@@H](NC)[C@@H](C)CC)C(C)C)C(C)C)[C@@H](C)CC)[C@@H](C)CC)C(C)C)[C@@H](C)CC)C(=O)N[C@@H](C)C(=O)N[C@@H](CCC(=O)O)C(=O)N[C@H](C(N)=O)C(C)C [compound 138] (H-[NMeI]VLSLDVPIGLLQILLVQARARAAREQAK([AEEA-AEEA-γGlu-γGlu-C20 diacid])[Aib]NAEI[Nle]AEV-NH2) | 0.0158 nM | 1000 nM
CCCC[C@H](NC(=O)[C@@H](NC(=O)[C@H](CCC(=O)O)NC(=O)C(C)(C)NC(=O)[C@H](CC(N)=O)NC(=O)[C@@H](NC(=O)[C@H](CCCCNC(=O)COCCOCCNC(=O)COCCOCCNC(=O)CC[C@H](NC(=O)CC[C@H](NC(=O)CCCCCCCCCCCCCCCCCCC(=O)O)C(=O)O)C(=O)O)NC(=O)[C@H](C)NC(=O)[C@H](CCC(N)=O)NC(=O)[C@H](CCC(=O)O)NC(=O)[C@H](CCCNC(=N)N)NC(=O)[C@H](C)NC(=O)[C@H](C)NC(=O)[C@H](CCCNC(=N)N)NC(=O)[C@H](C)NC(=O)[C@H](CCCNC(=N)N)NC(=O)[C@H](C)NC(=O)[C@H](CCC(N)=O)NC(=O)[C@H](C)NC(=O)[C@H](CC(C)C)NC(=O)[C@H](CC(C)C)NC(=O)[C@@H](NC(=O)[C@H](CCC(N)=O)NC(=O)[C@H](CC(C)C)NC(=O)[C@H](CC(C)C)NC(=O)CNC(=O)[C@@H](NC(=O)[C@@H]1CCCN1C(=O)[C@@H](NC(=O)[C@H](CC(=O)O)NC(=O)[C@H](CC(C)C)NC(=O)[C@H](CO)NC(=O)[C@H](CC(C)C)NC(=O)[C@@H](NC(=O)[C@@H](NC)[C@@H](C)CC)C(C)C)C(C)C)[C@@H](C)CC)[C@@H](C)CC)[C@@H](C)O)[C@@H](C)CC)C(=O)N[C@@H](C)C(=O)N[C@@H](CCC(=O)O)C(=O)N[C@H](C(N)=O)C(C)C [compound 196] (H-[NMeI]VLSLDVPIGLLQILLAQARARAAREQAK([AEEA-AEEA-γGlu-γGlu-C20 diacid])TN[Aib]EI[Nle]AEV-NH2) | 0.0316 nM | 1000 nM
CCCC[C@H](NC(=O)[C@@H](NC(=O)[C@H](CCC(=O)O)NC(=O)C(C)(C)NC(=O)[C@H](CC(N)=O)NC(=O)[C@@H](NC(=O)[C@H](CCCCNC(=O)COCCOCCNC(=O)COCCOCCNC(=O)CC[C@H](NC(=O)CC[C@H](NC(=O)CCCCCCCCCCCCCCCCCCC(=O)O)C(=O)O)C(=O)O)NC(=O)[C@H](C)NC(=O)[C@H](CCC(N)=O)NC(=O)[C@H](CCC(=O)O)NC(=O)[C@H](CCCNC(=N)N)NC(=O)[C@H](C)NC(=O)[C@H](C)NC(=O)[C@H](CCCNC(=N)N)NC(=O)[C@H](C)NC(=O)[C@H](CCCNC(=N)N)NC(=O)[C@H](C)NC(=O)[C@H](CCC(N)=O)NC(=O)[C@H](CCCNC(=N)N)NC(=O)[C@H](CC(C)C)NC(=O)[C@H](CC(C)C)NC(=O)[C@@H](NC(=O)[C@H](CCC(N)=O)NC(=O)[C@H](CC(C)C)NC(=O)[C@H](CC(C)C)NC(=O)CNC(=O)[C@@H](NC(=O)[C@@H]1CCCN1C(=O)[C@@H](NC(=O)[C@H](CC(=O)O)NC(=O)[C@H](CC(C)C)NC(=O)[C@H](CO)NC(=O)[C@H](CC(C)C)NC(=O)[C@@H](NC(=O)[C@@H](NC)[C@@H](C)CC)C(C)C)C(C)C)[C@@H](C)CC)[C@@H](C)CC)[C@@H](C)O)[C@@H](C)CC)C(=O)N[C@@H](C)C(=O)N[C@@H](CCC(=O)O)C(=O)N[C@H](C(N)=O)C(C)C [compound 198] (H-[NMeI]VLSLDVPIGLLQILLRQARARAAREQAK([AEEA-AEEA-γGlu-γGlu-C20 diacid])TN[Aib]EI[Nle]AEV-NH2) | 0.0316 nM | 63100 nM
